From patent publication US7691925B2, “Pressure-sensitive adhesive composition, pressure-sensitive adhesive sheets and surface protecting film” (priority 2004, dated 2010)

Details: 1 part ionic liquid in 9 parts toluene, 25° C., naked eyes
Method: “Toluene-soluble” in the present invention means that an ionic liquid is soluble in toluene, more specifically, refers to such nature that an ionic liquid is uniformly dissolved in toluene upon preparation of a 10 weight % solution of an ionic-liquid in toluene.
9 Parts by weight of toluene (guaranteed grade manufactured by Wako Pure Chemical Industries, Ltd.) was added to 1 part by weight of an ionic liquid, and this was mixed and stirred under a normal temperature (25° C.) for 10 minutes, and allowed to stand for 30 minutes.
Thereafter, solubility was assessed with naked eyes, and toluene-solubility was determined. In assessment criteria, the state where no separated substance is observed, and a substance is uniformly dissolved was assessed as “soluble” (existence of toluene-solubility).

Row | Structure (SMILES) | Toluene-solubility
1 | CCCCCCC[N+](CCCCCCC)(CCCCCCC)CCCCCCC.O=S(=O)([O-])C(F)(F)F [ionic liquid (3), tetra-n-heptylammonium trifluoromethanesulfonate] | possession of toluene-solubility was confirmed
2 | CCCCCCCC[P+](CCCCCCCC)(CCCCCCCC)CCCCCCCC.O=S(=O)([O-])C(F)(F)F [ionic liquid (4), tetra-n-octylphosphonium trifluoromethanesulfonate] | possession of toluene-solubility was confirmed
3 | CCCC[n+]1cccc(C)c1.O=S(=O)([N-]S(=O)(=O)C(F)(F)F)C(F)(F)F [ionic liquid (6), 1-butyl-3-methylpyridinium bis(trifluoromethanesulfon)imide, reference compound] | possession of toluene-solubility was not confirmed
4 | CCCCC[N+](CCCCC)(CCCCC)CCCCC.O=S(=O)([O-])C(F)(F)F [ionic liquid (1), tetra-n-pentylammonium trifluoromethanesulfonate] | possession of toluene-solubility was confirmed
5 | CCCCCC[N+](CCCCCC)(CCCCCC)CCCCCC.O=S(=O)([O-])C(F)(F)F [ionic liquid (2), tetra-n-hexylammonium trifluoromethanesulfonate] | possession of toluene-solubility was confirmed
